From US20240033234A1, “THERAPEUTIC COMPOUNDS, FORMULATIONS, AND USE THEREOF” (Tvardi Therapeutics, Inc., priority 2022, published 2024)
Values joined by “and” are separate entries in the source; they are usually repeats but may differ in a detail not shown here. Equal entries are not always repeated.

Assay: Accelerated and long term stability study of TTI-101 (Batch A, Batch B): HPLC assay, purity, impurities and water content after storage at 5° C., 25° C./60% RH, 30° C./65% RH or 40° C./75% RH
Assay type: physicochemical
Design: key to Impurity RRT 1.05: NQ: ≥0.02% and <0.05%; —: no peak
Details: Storage 25° C./60% RH
Protocol: Exemplary HPLC conditions: diluent was 0.1% trifluoroacetic acid (TFA) in acetonitrile, Mobile Phase A was 0.05% TFA in water, and Mobile Phase B was 0.05% TFA in acetonitrile, column (Agilent, Eclipse XDB-C18, 3.0×100 mm, particle size 1.8 μm), flow (0.425 mL/min), and detector (280 nm diode array).
Batch A was prepared analogously using Method 3 as described in Example 1. Batch B was prepared according to Method 5 as described in Example 1.
Samples of TTI-101 were stored at 5° C., 25° C./60% RH, 30° C./65% RH, or 40° C./75% RH. TTI-101 was stored in an LDPE bag enclosed with a Nylon cable tie and then transferred to another LDPE bag and enclosed with a Nylon cable tie. The enclosure was put into an HDPE bottle and closed with a polyethylene-lined polypropylene cap. The samples were stored under the above-identified conditions.
The samples were analyzed using HPLC with the exemplary conditions identified above. Relative retention time (RRT) for Compound 5 was about 0.83, Compound 4 was about 1.05-1.06, Compound 6 was about 1.15-1.17, and compound of formula (IV) was about 0.99.
• NA not applicable • NQ ≥0.02% and <0.05% • Avg average • Cmpd compound • — no peak • M month • RRT relative retention time

[1] = 0 M, Prep P1-P5, listed as Batch B
[2] = 3 M, Prep P1-P2, listed as Batch B

SMILES: COc1ccc(S(=O)(=O)Nc2cc(-c3c(O)ccc4ccccc34)c(O)c3ccccc23)cc1 [TTI-101]
- Assay [1]: 99.0% and 100.5% and 99.3% and 99.5% and 98.8%
- Impurity RRT 1.16 (Cmp 6) [1]: 0.08 area % and 0.07 area %
- Impurities Total (1 M, Avg): 0.5 area %
- Impurity RRT 0.80 (1 M, Avg): NQ (≥0.02% and <0.05%)
- Impurity RRT 0.84 (1 M, Avg): NQ (≥0.02% and <0.05%)
- Impurity RRT 0.87 (1 M, Avg): NQ (≥0.02% and <0.05%)
- Impurity RRT 0.99 (1 M, Avg): 0.10 area %
- Impurity RRT 1.02 (1 M, Avg): NQ (≥0.02% and <0.05%)
- Impurity RRT 1.05 (1 M, Avg): NQ (≥0.02% and <0.05%)
- Impurity RRT 1.06 (Cmpd 4) (1 M, Avg): NQ (≥0.02% and <0.05%)
- Impurity RRT 1.17 (Cmp 6) (1 M, Avg): 0.39 area %
- Purity (1 M, Avg): 99.4%
- Water Content (1 M, Avg): 0.1%
- Impurities Total (1 M, Prep P1-P2): 0.5 area %
- Impurity RRT 0.80 (1 M, Prep P1-P2): NQ (≥0.02% and <0.05%)
- Impurity RRT 0.84 (1 M, Prep P1-P2): NQ (≥0.02% and <0.05%)
- Impurity RRT 0.87 (1 M, Prep P1-P2): NQ (≥0.02% and <0.05%)
- Impurity RRT 0.99 (1 M, Prep P1-P2): 0.10 area %
- Impurity RRT 1.02 (1 M, Prep P1-P2): NQ (≥0.02% and <0.05%)
- Impurity RRT 1.17 (Cmp 6) (1 M, Prep P1-P2): 0.39 area %
- Purity (1 M, Prep P1-P2): 99.4%
- Water Content (1 M, Prep P1-P2): 0.1%
- Assay (1 M, Prep P1-P2, listed as Batch B): 99.0% and 99.2%
- Assay (3 M, Avg): 97.8%
- Impurities Total (3 M, Avg): 0.4 area %
- Impurity RRT 0.48 (3 M, Avg): NQ (≥0.02% and <0.05%)
- Impurity RRT 0.80 (3 M, Avg): NQ (≥0.02% and <0.05%)
- Impurity RRT 0.84 (3 M, Avg): NQ (≥0.02% and <0.05%)
- Impurity RRT 0.87 (3 M, Avg): NQ (≥0.02% and <0.05%)
- Impurity RRT 0.99 (3 M, Avg): 0.09 area %
- Impurity RRT 1.02 (3 M, Avg): NQ (≥0.02% and <0.05%)
- Impurity RRT 1.05 (3 M, Avg): —
- Impurity RRT 1.06 (Cmpd 4) (3 M, Avg): NQ (≥0.02% and <0.05%)
- Impurity RRT 1.17 (Cmp 6) (3 M, Avg): 0.33 area %
- Purity (3 M, Avg): 99.4%
- Water Content (3 M, Avg): 0.04%
- Impurities Total (3 M, Prep P1-P2): 0.4 area %
- Impurity RRT 0.80 (3 M, Prep P1-P2): NQ (≥0.02% and <0.05%)
- Impurity RRT 0.84 (3 M, Prep P1-P2): NQ (≥0.02% and <0.05%)
- Impurity RRT 0.87 (3 M, Prep P1-P2): NQ (≥0.02% and <0.05%)
- Impurity RRT 0.99 (3 M, Prep P1-P2): 0.09 area %
- Impurity RRT 1.02 (3 M, Prep P1-P2): NQ (≥0.02% and <0.05%)
- Impurity RRT 1.05 (3 M, Prep P1-P2): —
- Impurity RRT 1.17 (Cmp 6) (3 M, Prep P1-P2): 0.33 area %
- Water Content (3 M, Prep P1-P2): 0.04%
- Assay [2]: 96.8% and 98.8%
- Purity [2]: 99.4% and 99.5%
- Assay (6 M, Avg): 98.7%
- Impurities Total (6 M, Avg): 0.3 area %
- Impurity RRT 0.80 (6 M, Avg): NQ (≥0.02% and <0.05%)
- Impurity RRT 0.84 (6 M, Avg): NQ (≥0.02% and <0.05%)
- Impurity RRT 0.87 (6 M, Avg): NQ (≥0.02% and <0.05%)
- Impurity RRT 0.99 (6 M, Avg): 0.05 area %
- Impurity RRT 1.02 (6 M, Avg): 0.05 area %
- Impurity RRT 1.05 (6 M, Avg): NQ (≥0.02% and <0.05%)
- Impurity RRT 1.06 (Cmpd 4) (6 M, Avg): NQ (≥0.02% and <0.05%)
- Impurity RRT 1.17 (Cmp 6) (6 M, Avg): 0.24 area %
- Impurity RRT 1.39 (6 M, Avg): NQ (≥0.02% and <0.05%)
- Purity (6 M, Avg): 99.5%
- Water Content (6 M, Avg): <0.04%
- Impurities Total (6 M, Prep P1-P2): 0.3 area %
- Impurity RRT 0.80 (6 M, Prep P1-P2): NQ (≥0.02% and <0.05%)
